Source: patent US9023857B2, “Substituted 6-(2-aminobenzylamino)purine derivatives, their use as medicaments and preparations containing these compounds” (Univerzita Palackeho V Olomouci, priority 2009, dated 2015)

Key:
[1] = tested on: C-terminal domain (CTD) of RNA polymerase II, serine 2 and serine 5; experiment: Immunoblotting: phosphorylation of the C-terminal domain of RNA polymerase II; type: cell-based
Description: Cell were detached with rubber policeman and washed three times with ice-cold PBS and lysed in buffer (50 mM Tris, pH 7.4, 250 mM NaCl, 5 mM EDTA, 50 mM NaF, 1 mM Na3VO4, 1% Nonidet P40) containing mixture of protease and phosphatase inhibitors (Sigma-Aldrich St Louis, Mo., USA). 20 μg of total proteins were separated by SDS-polyacrylamide gel electrophoresis (SDS-PAGE) on 8% or 10% gels and transferred onto nitrocellulose membranes. Membranes were blocked in 5% milk and 0.1% Tween 20 in PBS and probed overnight with specific monoclonal antibodies or rabbit polyclonal sera. Primary antibodies specific for RNA polymerase II (all from Santa Cruz Biotechnology, California, USA) included: (i) N-20 used at 1 μg/ml, (ii) H14, specific for form phosphorylated at phosphoserine 5, used at 6 μg/ml and (iii) H5, specific for form phosphorylated at phosphoserine 2 used at 4 μg/ml. Additional primary mAb used in immunblots included (iv) anti-p53 (DO-1, in house) used at 1 μg/ml, (v) anti-p21^WAF1 (118, in house), used at 1 μg/ml), (vi) anti-actin (A-2066, Sigma-Aldrich St Louis, Mo., USA) used at 1 μg/ml, (vii) anti-T-antigen (419, in house), used at 1 μg/ml. All primary antibodies were diluted in PBS containing 5% powdered milk; 0.1% Tween 20. Peroxidase conjugated rabbit anti-mouse immunoglobulin or porcine anti-rabbit immunoglobulin antisera (DAKO, Glostrup, Denmark) were used as the secondary antibodies and visualised with ECL reagents (Amersham-Pharmacia, Little Chalfont, UK).
Modulation of expression from the HIV promoter by CDKI treatment may be mediated by transcriptional regulation. At the C-terminus of the largest subunit of RNA Pol II is an important regulatory domain referred to as CTD (C-terminal domain). We therefore investigated the effect of CDKIs on CTD serine 2 and serine 5 phosphorylation. […] Although the functions of CDKs and RNA polymerase II were suppressed, the expression from incorporated viral promoters was enhanced.
Cell were detached with rubber policeman and washed three times with ice-cold PBS and lysed in buffer (50 mM Tris, pH 7.4, 250 mM NaCl, 5 mM EDTA, 50 mM NaF, 1 mM Na3VO4, 1% Nonidet P40) containing mixture of protease and phosphatase inhibitors (Sigma-Aldrich St Louis, Mo., USA). 20 μg of total proteins were separated by SDS-polyacrylamide gel electrophoresis (SDS-PAGE) on 8% or 10% gels and transferred onto nitrocellulose membranes. Membranes were blocked in 5% milk and 0.1% Tween 20 in PBS and probed overnight with specific monoclonal antibodies or rabbit polyclonal sera. […]

HSV-2 = experiment: Plaque number reduction assay, HSV-2 on HFFF; type: cell-based, HSV-2 strain HG52
HCMV = experiment: Plaque number reduction assay, HCMV on HFFF; type: cell-based, Human cytomegalovirus strain Toledo
SV40 large T-antigen = type: cell-based
CDK9/cyclin T = CDK9/cyclin T (Homo sapiens, UniProt P50750); experiment: CDK inhibition assay, CDK9/cyclin T
breast carcinoma MCF7 = experiment: In vitro cytotoxic activity (Calcein AM, 72 hours), MCF7; settings: Homo sapiens, MCF7, 72 h, read-out: Cytotoxicity IC50 MCF7
[2] = tested on: cervical carcinoma cells HELA; experiment: In vitro cytotoxic activity (Calcein AM, 72 hours), HELA; settings: Homo sapiens, read-out: Cytotoxicity IC50 HeLa
[3] = tested on: promyelocytic leukemia HL 60; experiment: In vitro cytotoxic activity (Calcein AM, 72 hours), HL 60; settings: Homo sapiens, HL-60, 72 h, read-out: Cytotoxicity IC50 HL60
HAd4 = HAd4 yield reduction assay (multiple step growth curve) in A549 cells; settings: culture medium; combination: until 72 hours after infection
[4] = tested on: HIV promoter (pHIV-lacZ, extrachromosomal) in H1299-TAT cells; experiment: β-galactosidase expression from pHIV-lacZ transiently transfected to H1299-TAT; settings: H1299-TAT cells (FIG. 11)

CDK9/cyclin T, sequence (P50750 whole entry, species assumed): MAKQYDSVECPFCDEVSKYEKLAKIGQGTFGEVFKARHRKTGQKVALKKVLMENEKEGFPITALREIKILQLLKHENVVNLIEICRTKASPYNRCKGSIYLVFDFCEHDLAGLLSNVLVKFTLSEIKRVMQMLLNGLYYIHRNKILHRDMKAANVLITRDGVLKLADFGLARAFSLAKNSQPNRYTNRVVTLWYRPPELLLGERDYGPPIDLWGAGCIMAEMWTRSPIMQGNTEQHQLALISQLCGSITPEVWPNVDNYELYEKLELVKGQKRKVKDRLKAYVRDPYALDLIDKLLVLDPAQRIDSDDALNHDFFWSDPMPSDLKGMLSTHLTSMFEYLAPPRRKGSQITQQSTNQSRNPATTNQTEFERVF
CDK9/cyclin T, sequence (O60563 whole entry partner, species assumed): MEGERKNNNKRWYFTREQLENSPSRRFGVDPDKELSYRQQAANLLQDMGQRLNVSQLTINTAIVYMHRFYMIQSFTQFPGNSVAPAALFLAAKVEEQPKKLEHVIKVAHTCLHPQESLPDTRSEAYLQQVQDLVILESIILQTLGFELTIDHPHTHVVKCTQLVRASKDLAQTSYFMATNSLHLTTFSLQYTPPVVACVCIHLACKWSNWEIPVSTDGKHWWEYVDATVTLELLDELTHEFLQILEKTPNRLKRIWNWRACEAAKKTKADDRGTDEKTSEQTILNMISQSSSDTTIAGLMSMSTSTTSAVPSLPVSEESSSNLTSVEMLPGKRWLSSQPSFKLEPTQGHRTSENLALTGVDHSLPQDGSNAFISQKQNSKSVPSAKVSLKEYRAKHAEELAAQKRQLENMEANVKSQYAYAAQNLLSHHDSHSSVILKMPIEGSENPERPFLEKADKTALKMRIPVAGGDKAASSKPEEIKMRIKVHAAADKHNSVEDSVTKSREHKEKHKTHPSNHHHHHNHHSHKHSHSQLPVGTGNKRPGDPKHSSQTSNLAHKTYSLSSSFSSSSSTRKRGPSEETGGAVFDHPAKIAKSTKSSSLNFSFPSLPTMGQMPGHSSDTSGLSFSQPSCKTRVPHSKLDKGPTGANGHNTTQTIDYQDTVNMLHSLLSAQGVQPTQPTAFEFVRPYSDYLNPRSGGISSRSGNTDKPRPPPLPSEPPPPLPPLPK

## CCC(CO)Nc1nc(NCc2ccccc2N)c2ncn(C(C)C)c2n1 (stereo not drawn) [Compound 105, 2-({6-[(2-aminobenzyl)amino]-9-isopropyl-9H-purin-2-yl}amino)butan-1-ol]
[1]; 12 hours treatment, cell lines with incorporated SV40, all tested cell lines (FIG. 12A)
  phosphorylation of both serine 2 and serine 5 of RNA polymerase II CTD: inhibited
[1]; COS-1, CV-1 and MCF-7 cells
  levels of serine 2 and serine 5 phosphorylation of RNA polymerase II CTD: substantially reduced
[1]; MCF7 cells treated for 24 h, immunoblot (FIG. 2)
  phosphorylation of CTD of RNA polymerase II: reduced phosphorylation
HSV-2
  inhibition of virus replication (in words): inhibited replication
HCMV
  inhibition of virus replication (in words): equally sensitive
SV40 large T-antigen
  level of large T-antigen: reduced level
CDK9/cyclin T
  IC50: 5 nM
Breast carcinoma MCF7
  IC50: 3400 nM
[2]
  IC50: 2500 nM
[3]
  IC50: 6700 nM
HAd4
  appearance of extracellular virus: considerably delayed
[4]
  expression from pHIV-lacZ (extrachromosomal location), β-galactosidase readout: inhibited
